Experiment [1] deals with human neural progenitor cells (hNPCs). Briefly: Differentiation of hNPCs in NB medium with or without 100 μM fusaric acid; TH and Tuj1 expression, immunocytochemistry and RT-PCR (FIGS. 2, 3). Type of experiment: cell-based. The settings on record: 100 μM fusaric acid added to NB medium with 2% B-27 minus-AO, 10 μM forskolin, 1 mM db-cAMP, versus without. The method, then: Total cellular RNAs were extracted from the hNPC, using Trizol and chloroform. cDNAs were synthesized from 500 ng of the total RNAs, using RNA Superscript II RTase, Oligo-d(T) primers, DTT and dNTPs, according to the manufacturer's protocol. The PCR was performed in a final volume of 20 μl containing 1 μl of cDNA and 1 μl of 10 pM primers, using a SYBR-Green mixture. The expressions of TH, DAT, GFAP, Nurr1, Tuj1, and Lmx1a were analyzed, using RPL22 as an internal control. The quantitative real-time PCR was performed using the LightCycler System. The amplification was monitored and analyzed through measuring the binding of the fluorescent dye SYBR Green to double-stranded DNA. The target DNAs were amplified by performing total 40 cycles, under the conditions at 95° C. for 10 seconds, at 60° C. for 10 seconds, at 72° C. for 20 seconds. Final extension was performed at 72° C. for 10 minutes. Results were expressed relative to the gene RPL-22 by comparative Ct method. The primers used in the PCR are described in Table 1. […]
hNPCs were proliferated in a DMEM/F12 (1:1) Glutamax medium, and then differentiated to neurons in a Neurobasal (NB) medium containing 2% of B-27 minus-AO supplement (GIBCO), 10 μM of forskolin, and 1 mM of db-cAMP, along with or without 100 μM of fusaric acid. After induction of the differentiation, the expression levels of TH and Tuj1 were measured (FIG. 2).

The test system is the same in experiment [2]. The experiment can be described thus: Differentiation of hNPCs into dopaminergic neurons in media with various additives; TH and Tuj1 counted with DAPI staining (FIG. 1). In kind it is cell-based. Here is the method: For dopaminergic differentiation, hNPCs were plated onto a culture dish pre-coated with 15 μg/ml of poly-L-ornithine and 4 μg/ml of fibronectin at a density of 30,000 cells/cm^2; and after 2 or 3 days the cells were cultured in a NB medium comprising differentiation-inducing agents such as 2% of B27 minus-AO supplement (GIBCO), 10 μM of forskolin, 1 mM of db-cAMP and […] of fusaric acid, at 37° C. for 7 days, unless otherwise described.
hNPCs were washed with PBS three times and then fixed with 4% paraformaldehyde in PBS for 10 minutes. The cells were washed with PBS three times and then blocked by reacting with 3% Normal goat serum, 0.2% Triton X-100 and 1% BSA in PBS at room temperature for 1 hour. […]
hNPCs were differentiated into dopaminergic neurons in media obtained by adding interleukin 1 beta, db-cAMP, and fusaric acid (Fus), in various concentrations and combinations, to a Neurobasal medium [differentiation medium (DM) control]. TH (a dopaminergic neuron marker) and Tuj1 (a neural marker) were measured through the DAPI staining (FIG. 1).

Experiment [3] concerns TH-expressing cells (dopaminergic neurons) differentiated from hNPCs. The experiment can be described thus: Neuroprotective effect: differentiation induced in the presence of MPP (FIG. 6). In kind it is cell-based, human. The text has this: It is known that 1-methyl-4-phenylpyridium (MPP) induces cytotoxicity on dopaminergic neurons. Therefore, we evaluated functions of fusaric acid during the differentiation, through inducing differentiation in the presence of MPP (FIG. 6).

For experiment [4], the system named is human neural progenitor cells (hNPCs). Briefly: Differentiation of hNPCs under hypoxia or normoxia; TH expression (FIG. 5). The settings on record: NB medium with 2% B-27, 10 μM forskolin, 100 μM fusaric acid, 100 μM db-cAMP; 3% versus 21% oxygen partial pressure. In kind it is cell-based. Here is the method: hNPCs were proliferated in a DMEM/F12 (1:1) Glutamax medium, and then differentiated in a Neurobasal (NB) medium (Invitrogen) containing 2% of B-27, 10 μM of forskolin, 100 μM of fusaric acid, and 100 μM of db-cAMP, under the hypoxia condition (3% of oxygen partial pressure) or the normoxia condition (21% of oxygen partial pressure). After induction of the differentiation, the expression levels of TH were measured (FIG. 5).

For experiment [5] the test system is unchanged. Briefly: Substitution potential for SHH and FGF8 as differentiation-inducing agents; TH expression (FIG. 4). In kind it is cell-based. The method, then: In order to evaluate substitution potential for the expensive SHH and FGF8 that are of limited use as a differentiation-inducing agent, hNPCs were proliferated in a DMEM/F12 (1:1) Glutamax medium. After induction of the differentiation in a Neurobasal (NB) medium (Invitrogen) using 2% of B-27, 200 ng/ml of SHH, 25 ng/ml of FGF8, 10 μM of forskolin, 100 μM of fusaric acid, and 100 μM of db-cAMP, the expression levels of TH were measured (FIG. 4).

[6] abbreviates: differentiation in medium containing fusaric acid, in the presence of MPP.

Entries after “also recorded” stand apart in the source; their conditions may differ.

For `CCCCc1ccc(C(=O)O)nc1` [fusaric acid, 5-butylpicolinic acid], in experiment [1], the “expression of TH (dopaminergic neuron marker)” value is “remarkably high expressed” and the “expression of Tuj1 (neuronal marker)” value was “also increased”. Besides, the “expression levels of TH and Tuj1 (differentiation potential)” value in experiment [2] (culture medium containing db-cAMP and fusaric acid, compared with other combinations (interleukin 1 beta, db-cAMP, fusaric acid) in Neurobasal medium) is “highest expression levels of TH and Tuj1”. Besides, in experiment [2] (db-cAMP and fusaric acid each at 100 μM), the “differentiation potential by concentration” value is recorded as “the highest differentiation potential was obtained”. For the same compound, the neuroprotective activity result in experiment [3] (conclusion from FIG. 6, MPP treatment) is listed as “has neuroprotective activity”. Further, in experiment [3] (setting [6]), the “expression of Tuj1 under MPP treatment” value is “relatively more expressed” and the “survival of TH-expressing cells under MPP treatment” value is given as “more TH-expressing cells survived”. In addition, the “differentiation into dopaminergic neurons (TH expression), hypoxia versus normoxia” value in experiment [4] was “differentiated more efficiently into dopaminergic neurons in hypoxia than in normoxia”. Further, in experiment [5] (100 μM fusaric acid added in addition to 200 ng/ml SHH and 25 ng/ml FGF8), the “differentiation into dopaminergic neurons (TH expression)” value is “more increased”. Moreover, in experiment [5] (100 μM fusaric acid instead of SHH and FGF8, NB medium, 2% B-27, 10 μM forskolin, 100 μM db-cAMP), the “differentiation into dopaminergic neurons (TH expression)” value is on record as “higher differentiation potential into dopaminergic neurons; also recorded: differentiated most effectively into dopaminergic neurons”.

The record behind these values is patent US8921107B2, “Method for differentiating human neural progenitor cells into dopaminergic neurons, and medium for differentiation thereof” (College of Medicine Pochon Cha University Industry-Academic …, priority 2010, dated 2014).
